Test results reported in patent US20250025387A1, “COMPOSITION FOR THE TREATMENT OF THE SKIN OF DIABETES PATIENTS” (MIBELLE AG, priority 2021, published 2025).
“Also recorded” adds a separate entry of the source.

Legend:
involucrin = test: Involucrin expression in skin explants after topical treatment in Franz diffusion cells; assay type: cell-based; conditions: gel containing 0.013% CaCl2·2H2O, topical 24 hours, 20 mg
Experimental: The effect of a topical treatment with Ca^2+ phospholipid complex on the expression of the epidermis differentiation marker involucrin was investigated in skin explants. […] Thereafter, the skin explants were washed with 3 ml of water and frozen at −80° C. The tissues were fixed in formaldehyde and embedded in paraffin. Tissue sections of 5 μm were prepared and mounted on glass slides before deparaffination. The slides were stained with hematoxylin-eosin stain to analyze tissue structure. The protein expression of involucrin was determined by immunohistochemical staining and quantified by image analysis.

loricrin = test: Loricrin expression stain of 3D epidermis (immunohistochemistry); assay type: cell-based, human; conditions: 1.1 mM apical, 0.3 mM CaCl2·2H2O basal, 9 days of differentiation
Experimental: (§1) The effect of the Ca^2+ phospholipid complexes on the differentiation of 3D-reconstructed epidermis was investigated. To this end, keratinocyte progenitor cells were cultivated in low-calcium growth medium (TAK-GM, 0.03 mM calcium chloride dihydrate (CaCl2·2H2O)) and were then used to reconstruct a 3D epidermis. For this purpose, the medium was replaced by a 3D differentiation medium (TAK-3D) containing 1.1 mM CaCl2·2H2O and the cells were grown in the medium for a further day. The cultures were then contacted with the air in order to induce differentiation and formation of the skin barrier, and grown for a further 9 days with changing of the medium every second day in the following way: • Condition 1: 1.1 mM CaCl2·2H2O from the basal side (TAK-3D). This is the standard condition for efficient epidermis formation. • Condition 2: 0.3 mM CaCl2·2H2O from the basal side (low calcium concentration). The calcium concentration was reduced here in order to cause impaired formation of the epidermis and thus produce an impaired skin barrier. This is the minimum necessary calcium concentration that must be present on the basal side in order to ensure formation of the epidermis. • Condition 3: 0.3 mM CaCl2·2H2O from the basal side+1.1 mM CaCl2·2H2O from the apical side. Here, calcium was additionally added to the 3D epidermis apically in the form of calcium chloride dihydrate. […]

[1] = system: 3D-reconstructed epidermis; test: Rebuilding of the epidermis structure in an in vitro skin model, control CaCl2 (hematoxylin-eosin stain); assay type: cell-based, human; conditions: 1.1 mM apical, 0.3 mM CaCl2·2H2O basal, 9 days of differentiation; dihydrate
Experimental: as §1

O.O.[Ca+2].[Cl-].[Cl-] [CaCl2·2H2O, calcium chloride dihydrate]
reduction of involucrin expression compared to the placebo-treated skin explant (involucrin): 91.1%
expression of the epidermal differentiation marker loricrin (loricrin): reduced loricrin production
formation of 3D epidermis (hematoxylin-eosin stain) [1]: impairment of epidermis formation; also recorded: additionally worsened the formation of a 3D epidermis
